This is an account of results in patent US8258175B2, “Isoindolin-1-one derivatives” (Cancer Research Technology Limited, priority 2004, dated 2012).

Series [1] deals with SJSA cells (MDM2 amplified). As to the kind of experiment: Western blot of SJSA cells treated with compound. The format is cell-based. As to conditions: SJSA cells, 5, 10 and 20 μM, lysed at 6 hours. Here is the method: Osteosarcoma cell line SJSA-1 was plated out in 55 mm dishes at a density of 2.5×10^5 cells in 3 mL of RPMI 1640 medium (Sigma) supplemented with 10% foetal bovine serum (FBS, Gibco), 1% (v/v) HEPES (Gibco), 1% (v/v) sodium pyruvate (Gibco) and 1.25 g/500 ml glucose (Sigma) for 48 hours in a 37° C. humidified incubator (Sanyo, MCO 20AIC) at a CO2 concentration of 5%.
The dishes were treated with NU8231 at a final concentration of 5, 10, and 20 μM (at 1% DMSO) together with a 1% DMSO and an untreated control sample for 6 hours. The medium was then aspirated and the dishes were washed with 3 mL of cold PBS. The cells were then lysed in 40 μL of Sodium Dodecyl Sulphate (SDS, Sigma) lysis buffer, boiled at 100° C. for 10 minutes before sonication for 3×5 seconds at 20 microns (Soniprep 150, MSE).
The protein concentration for each of the samples was then determined using BCA Protein Assay Kit (Pierce), and 1:1 loading buffer consisting of β-mercaptoethanol (Sigma) and 0.5% bromophonol-blue (Sigma) were added to 40 μg of protein and made up to a final volume of 30 μL and boiled for 5 minutes at 100° C.
The samples were then loaded onto a precast 4-20% gradient polyacrylamide Tris-Glycine gels (15 wells, 1.5 mm thickness, Invitrogen Life Technologies), along with a pre-stained marker protein (SeeBlue, Invitrogen). The Gels were processed in Novex XCell (Invitrogen) at 180V and blotted onto a High Bond C membrane (Amersham Life Science) overnight at 30V.
The membrane was then blocked for one hour at room temperature in TBS-Tween containing 5% non-fat milk (TBST-M) followed by incubation with primary antibodies for MDM2 (MDM2-Ab1, 1:500, Oncogene), p53 (p53-D07, 1:1000, Novacastra), p21 (p21 Ab1, 1:100, Oncogene) and Actin (Actin AC40, 1:1000, Sigma) in PBST-M for 1 hour.
The membrane was then washed three times in TBST (15 minutes per wash) and then incubated for an additional 1 hour with a anti mouse or a rabbit horseradish peroxidase (HRP) secondary antibody (Dako, 1:1000) in PBST-M followed by a final wash consisting of six washes with TBST at 5 minutes per wash. […]
(In general: In western blotting, separated proteins are transferred to a membrane and probed.)

A further series has as its target MDM2 (Homo sapiens, UniProt Q00987). As to conditions: Stoll et al 2001; cited from earlier work.
Series [2] has as its target T1, MDM2-p53 interaction (Homo sapiens, UniProt Q00987).
T1 construct: made in house; host or cells: in vitro translation (cell-free)
As to the kind of experiment: Preliminary screening, in vitro MDM2-p53 binding assay. As to conditions: preliminary screening studies; read-out: IC50 (inhibition of the MDM2-p53 interaction). The text has this: Studies of the p53 binding pocket on the MDM2 protein guided the nature of the molecules synthesised. Thus the present invention provides small molecule inhibitors of MDM2-p53 interaction based on an isoindolinone scaffold.

Series [3] deals with T1, MDM2-p53 interaction. As to the kind of experiment: ELISA assay of MDM2-p53 complex formation (MDM2 binding to immobilised IP3 p53-derived peptide). The settings on record: n=3 independent determinations; 5% DMSO; interpolated from three standard concentrations. Here is the method: Streptavidin-coated 96-well plates are used to immobilise a biotin-tagged IP3 p53-derived peptide ([…]). This is a peptide analogue derived from the p53 binding site for MDM2 ([…]). […] Aliquots of MDM2 generated by in vitro translation are pre-incubated for 20 minutes at room temperature (i.e. 20-25° C.) with test compounds and controls, before transfer into the IP3-coated 96-well plates. Following a further incubation period of 90 minutes at 4° C., the plates are washed to remove unbound MDM2 and the residual bound MDM2 is detected using a primary monoclonal antibody (MDM2 Ab-1, clone IF2, Oncogene Research Products) and HRP-conjugated secondary antibody (Goat anti-mouse, Dako PO447). The HRP (horseradish peroxidase) is measured by a chemiluminescence reaction using standard reagents (Amersham Pharmacia™ RPN 2106) and an automatic injection 96-well plate illuminometer (EG & G Berthold Microplate LB 96V).
Compound NU8231 is currently included as a standard “lead compound” positive control. […] The AP peptide is included as a positive control for biological evaluation of the isoindolinones in the cell free binding assays.
All compounds are dissolved in DMSO and tested at three standard concentrations (initially 20 μM, 100 μM and 500 μM) in the presence of a fixed final concentration of 5% DMSO. The percentage inhibition of complex formation is expressed relative to a DMSO only control and an IC50, defined as the concentration required for 50% inhibition of MDM2-p53 complex formation, determined by interpolation.

Where no end group is shown, it is not given here. Where only a bound is given, the exact number is not on record here.

T1 sequence (Q00987 whole entry): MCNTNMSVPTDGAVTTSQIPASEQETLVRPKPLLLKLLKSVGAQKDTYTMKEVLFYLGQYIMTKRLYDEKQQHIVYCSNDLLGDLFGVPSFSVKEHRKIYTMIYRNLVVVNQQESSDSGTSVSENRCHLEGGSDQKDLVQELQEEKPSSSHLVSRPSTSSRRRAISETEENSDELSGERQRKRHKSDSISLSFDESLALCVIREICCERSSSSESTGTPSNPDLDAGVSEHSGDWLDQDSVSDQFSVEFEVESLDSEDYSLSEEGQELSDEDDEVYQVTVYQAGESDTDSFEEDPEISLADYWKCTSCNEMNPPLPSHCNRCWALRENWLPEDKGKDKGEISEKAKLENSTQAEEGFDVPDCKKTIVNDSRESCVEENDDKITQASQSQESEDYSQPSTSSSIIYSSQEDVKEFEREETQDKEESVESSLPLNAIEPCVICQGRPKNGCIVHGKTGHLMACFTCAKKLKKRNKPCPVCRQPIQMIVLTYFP
Chain of MDM2 (Q00987 whole entry): as above

As to `CCCN1C(=O)c2ccccc2C1(OCc1cc(OC)c(O)c(OC)c1)c1ccc(Cl)cc1` (centres unmarked) [NU8231, 3-(4-Chlorophenyl)-3-(4-hydroxy-3,5-dimethoxybenzyloxy)-2-propyl-2,3-dihydroisoindolin-1-one], in series [1], the “MDM2 level (Western blot)” value is given as “dose dependent increase”, the “p21 level (Western blot)” value was “dose dependent increase” and the “p53 levels (Western blot)” value is “No change”.

Turning to “IP3: biotin-tagged p53-derived peptide (MPRFMDYWEGLN), analogue derived from the p53 binding site for MDM2 (also: biotin tag, place not given here)”, the “affinity for MDM2 relative to the native p53 peptide” value in the series with MDM2 is “higher affinity for MDM2 than the native peptide”.

Consider `CCCNC1(c2ccccc2)c2ccccc2C(=O)N1Cc1ccccc1` (centres unmarked) [NU8006, 2-benzyl-3-phenyl-3-(propylamino)isoindolin-1-one], for which, on MDM2-p53 interaction [2], the IC50 – broadly, the concentration that inhibits the measured activity by half – is roughly 200 µM.

In the case of `CCCN1C(=O)c2ccccc2C1(OCc1ccc(C(C)(C)C)cc1)c1ccccc1` (centres unmarked) [NU8223, 3-(4-tert-Butylbenzyloxy)-3-phenyl-2-propyl-2,3-dihydroisoindolin-1-one], the melting point (usually the temperature, or range, at which the solid turns liquid) lay in the range of 118.7 to 119.9 °C. Also, the 50% inhibitory concentration (IC50) at MDM2-p53 interaction [3] is greater than 500 µM.

`CCCN1C(=O)c2ccccc2C1(OCc1ccc(C(C)(C)C)cc1)c1ccc(Cl)cc1` (centres unmarked) [NU8221, 3-(4-tert-Butyl-benzyloxy)-3-(4-chlorophenyl)-2-propyl-2,3-dihydroisoindolin-1-one] showed a melting point of 116.5 to 117.6 °C. The molecule further displayed an IC50 on MDM2-p53 interaction [3] of 187 ± 38 µM.

Turning to `CCCOC1(c2ccccc2)c2ccccc2C(=O)N1CCC` (centres unmarked) [NU8009, 2-propyl-3-phenyl-3-propoxy isoindolinin-1-one], the IC50 at MDM2-p53 interaction [2] is roughly 200 µM.

`CCCOC1(c2ccccc2)c2ccccc2C(=O)N1Cc1ccccc1` (centres unmarked) [NU8001, 2-benzyl-3-phenyl-3-propoxy isoindolin-1-one]: the IC50 at MDM2-p53 interaction [2] was roughly 200 µM.
